4 molecules from patent publication US7282215B2, “Supports for photosensitizer formulations” (The University of British Columbia, priority 2000, dated 2007) can be followed below.

Where two headings read alike, the source gives them in different places. Marks after values point to notes of the source that are not given here.

Series [1] is described as follows: Drug loading of liposomal versus 10% P123 formulations. In kind it is physicochemical. Conditions: prepared at 2 mg/ml; for Drug loading, P123: Pluronic P123 10% weight/volume; for Drug loading, Liposome: liposomal formulation. Here is the method:
5 mg drug and lipids (40% EPG in DMPC) are combined in CH2Cl2 at a drug to lipid ratio of 1:10 w/w in 250 ml round bottom flask. The maximum concentration of drug in solvent is 2 mg/ml. CH2Cl2 is removed rapidly as described in Example 5. The resulting thin film is hydrated with 2.5 ml lactose solution (9.5% w/v) using hand swirling with glass beads at 40° C. Extrusion using Model 4T (Lipex Biomembranes Inc. B.C., Canada) is carried out with the thermostat set at 40° C. The multilamellar vesicles (MLVs) arising from hydration steps of the liposomal formulation were also examined under the microscope. MLVs are successively extruded 5 times through each of the 400 nm, 200 nm and 100 nm polycarbonate membranes (Nuclepore PC, Costar). Extruded samples were diluted 1:100 in PBS (pH 7.4) and the absorbance determined at 690 nm wavelength.
In this experiment liposomal and block copolymer (micellar) photosensitizer formulations of A- and B-ring compounds of EA6 and B3 were compared. Each of the photosensitizer samples was prepared at a final drug concentration of 2 mg/ml. The block copolymer P123, and the liposomal formulations were prepared as described in the Examples 5 and 6, respectively.

The nature of series [2]: Liposomal drug release to FBS by fluorescence (Ffbs/Ftx). In kind it is in vitro ADME, bovine. The settings on record: 37° C., n=2. Here is the method: This experiment test drug release from micro-thin film preparations and conventional thin film vesicles (76 nm and 98 nm) produced in Example 25. The assay was carried out using an Aminco-Bowman 2 Fluorescence Spectrometer. It has previously been observed in the liposomal photosensitizer formulations that the fluorescence from the photosensitizer drug is quenched due to the high ratio of drug to lipid present. […] Fluorescence signal from liposomal suspensions is therefore low, and increases only when the drug leaves the bilayer for an alternative binding site.
The increase in fluorescence signal reflects liposomal drug transfer in proportion to the rate and extent of transfer to added serum components.
The liposomal suspension is diluted with 5% Dextrose to give an absorbance of 0.1 at the excitation wavelength (430 nm). […] 100 μl of FBS is added to the cuvette, and increase in fluorescence is monitored (following a quick couple of inversions) over 2-3 min if necessary. Once a steady level is achieved (noted as Ffbs), the liposomal system is disrupted using 0.05% v/v Triton X-100 to get a 100% drug level. The maximum fluorescence level is noted as Ftx. The ratio of Ffbs/Ftx gives an estimation of liposomal drug release, and is highly reproducible (SD ˜0-2% for n=5). Reported release results are based on 2-5 repeat assays depending on instrumental stability.

Series [3] in a line: Vesicle size of liposomal A-EA6 after microfluidization. The format is physicochemical. The settings on record: for Size: 10 mL batch. How it is done:
MLVs obtained from each of the conventional and micro-thin films of EA6-A in 3% w/w DMPG/DMPC prepared in Example 24 were introduced into the reaction chamber of a small microfluidizer (23 ml capacity; M110S, Microfluidics). […] The reaction chamber was immersed in ice, with the pressure transducer (Dynisco μPR 690) setting adjusted to 10,000 psi.
Use of the microfluidizer required priming the system with 9.2% lactose. The dead volume retained was considerably higher than stated in the manual, and as a result, only ˜2 mL of undiluted sample was recovered after the first pass in each case. […] Processing was carried out for a total of 6 passes, with 200 μl samples being removed for particle sizing following every pass. Due to limited recovery and dilution of the above samples, 2 larger batches (20 mL) were prepared using the conventional thin film process, and microfluidized with a total of 5 passes. To avoid excessive dilution of the unilammelar vesicles, recovery was limited to 8 mL.
Microfluidisation was repeated with larger volumes of 20 mL. […] The final concentration of A-EA6 in both batches (HH02-5 A and HH02-5 B) was 1.5 mg/mL. These samples were processed with the microfluidiser in a hot water bath at 45° C. instead of ice to prevent suspension temperature falling below the phase transition of DMPC in between passes. Size determination was carried out by laser light scattering on a NICOMP™ 370 Submicron Particle Sizer.

Experiment in series [4]: as above
The format is physicochemical.

Series [5] has as its system L1210 cells. Put plainly: In vitro phototoxicity (MTT assay after light exposure). In kind it is cell-based. How it is done: Exposure to drugs was carried out in the presence and absence of fetal calf serum (FCS) as a model to study transfer of drug to cells in vivo. […] A suspension of L1210 cells was prepared and exposed to various drug formulations (drug concentrations ranging from 0-50 ng/ml) either in the absence or presence of 10% fetal calf serum (FCS). One hour later, the drug was removed by pelleting the cells by centrifugation. The pellet was briefly washed with 1 ml DME and resuspended in 5% FCS/DME. 100 μl of the cell suspension was aliquoted into 6 wells of a 96 well plate, and the plate exposed to light at 10 J/cm^2. Viability was determined 24 h post exposure using the MTT assay (Mosmann, J. Immunol. Meth. 65:55-63, 1983).

The subject of series [6] is M1 rhabdomyosarcoma tumor. Put plainly: PDT tumor recurrence in tumor mouse model. In kind it is in vivo, DBA/2 mouse. More on the design: key to Percent (%) Mice Tumor Free: Mice suffered from phototoxic (PT) reaction at the site of light exposure and were subsequently euthanized. Here is the method: Photosensitizer formulations were prepared in 10% w/v Pluronics as described in Example 4. BPD-MA was formulated in F127. B-ring compounds B-EA6 and B-B3, were prepared in P123 due to insufficient drug loading in F127. Liposomal BPD-MA formulation was Verteporfin™ and B-ring compounds were formulated in the same lipid composition. Where DMSO/plasma preparations were made, the DMSO dissolved drug was added directly to mouse plasma and the drug association with different plasma components was observed.
In these experiments the tumor model used was the DBA/2 mouse (males) inoculated intradermally with M1 rhabdomyosarcoma tumor cells (M1, ATCC. When tumors reached a diameter of 4-6 mm, the mice (n=10, unless other wise stated) were treated with photodynamic therapy (PDT). PDT involved intravenous injection of the formulated drug in 0.2 mL volume of PBS. This was followed by exposure of the tumor region to laser light (Argon pumped dye laser (5W), 690 nm, 50J/cm2) 15 min later. Animals were then monitored for tumor recurrence over a 20 day period post treatment.

A short description of series [7]: pH studies of copolymer formulations. Conditions: acidification. The format is physicochemical. An excerpt:
Counteracting the oily nature of P123 could be achieved by incorporation of copolymer that is in solid form at room temperature. The use of 1% w/w F127 with 9% w/v P123 instead of 10% P123 (w/v) produced a thin film, which was more readily hydrated. […] This necessitates hydration of the solid drug-polymer with a very mild buffer to counteract acidification which occurs upon use of sterile packed distilled water as commonly practiced in clinical settings. Behavior of poloxamers is unaffected by pH, and the use of buffers would be entirely dependent on ionizable groups present on the drug substance.

For series [8] the following is noted: JM4 at 2 mg/ml, after overnight storage and centrifugation. Here is the method:
1 to 2 mg drug and 25-100 mg Pluronic are combined in methylene dichloride (CH2Cl2) to yield drug concentration of 1 mg/ml. CH2Cl2 is removed rapidly by rotary evaporation (Rotavapor R-124, Bucchi B172 Vacobox pump) at 50°, at maximum speed of rotation. Once a steady minimum pressure is achieved, the flask is held under vacuum for a further 20-30 min. […] Samples are kept overnight at room temperature to allow unincorporated drug to fall out, and then spun at 14,000 rpm {Eppendorff, Microfuge} for 30 min. Supernatant is decanted off into a fresh Eppendorff vial, and diluted 1:100 in the iso-osmolar medium used for thin film hydration (PBS or lactose) for determination of absorbance 690 nm (A690). Formulations are stored at 4° C. or frozen at −20° C. for long term storage.
In this experiment the following three selected dihydroxychlorins were examined for formulation with 10% P123. Each of the drugs was prepared to a final concentration level of 1 mg/ml and the formulation protocol used is described in Example 5. These compounds were prepared as described in U.S. patent application Ser. Nos. 09/551,159 and 09/551,160, both filed Apr. 14, 2000, and No. 60/129,324, filed Apr. 14, 1999, all three of which are hereby incorporated by reference as if fully set forth. One of these compounds, JM4, was further tested for drug incorporation using 2.5 to 10% P123.

On to `C=Cc1c(C)c2cc3nc(cc4[nH]c(cc5nc(cc1[nH]2)C(C)=C5CCC(=O)OC)c(CCC(=O)OC)c4C)C1(C)C3=CC=C(C(=O)O)C1C(=O)OC` (stereo not drawn) [A-B3], for which, in series [1], the “Drug loading, P123” value is 1.33 mg/mL and the “Drug loading, Liposome” value came to 1.84 mg/mL.
On to `C=Cc1c(C)c2cc3nc(cc4[nH]c(cc5nc(cc1[nH]2)C(C)=C5CCC(=O)OCCO)c(CCC(=O)OCCO)c4C)C1(C)C3=CC=C(C(=O)OC)C1C(=O)OC` (stereo not drawn) [A-EA6, Diethyleneglycol Ester A-ring], for which the “Drug release from liposomal formulation to 5% FBS” value in series [2] (micro-thin film batch) is recorded as 72%; in series [2] (thin film batch), 67%. Besides, the Size in series [3] (conventional thin film, pass 3) was 81 + 21^2 nm; in series [3] (conventional thin film, pass 4), 63 nm; in series [3] (conventional thin film, pass 5) it was 66 nm; in series [3] (conventional thin film, pass 6), 63 nm; in series [3] (micro-thin film, pass 1), 141 + 54^2 nm; in series [3] (micro-thin film, pass 2), 62 nm. For the same molecule, the Size is on record as 67 nm in series [3] (micro-thin film, pass 3); 59 nm in series [3] (micro-thin film, pass 4); 60 nm in series [3] (micro-thin film, pass 5); 57 nm in series [3] (micro-thin film, pass 6). The Mean vesicle size in series [3] (conventional thin film, 20 mL, after the first pass) was determined as 98 nm; in series [4] (micro-thin film, 20 mL, after the first pass), 76 nm. In addition, the Vesicle size is given as around 60 nm in series [3] (microfluidized, 10 mL volume) and 100-110 nm in series [4] (final extrusion through 100 nm filters). The “Drug loading, P123” value in series [1] came to 1.82 mg/mL. Also, in series [1], the “Drug loading, Liposome” value came to 0.98 mg/mL.
For `C=Cc1c(C)c2cc3nc(cc4[nH]c(cc5nc(cc1[nH]2)C1(C)C5=CC=C(C(=O)OC)C1C(=O)OC)c(C)c4CCC(=O)OCCO)C(CCC(=O)OCCO)=C3C` (stereo not drawn) [B-EA6], the LD50 was 12.9* ng/ml in series [5] (Carrier Copolymer (P123), +FCS (10%)); 2.06* ng/ml in series [5] (Carrier Copolymer (P123), −FCS); 20.0 ng/mL in series [5] (Carrier DMSO, +FCS (10%)); 4.7 ng/mL in series [5] (Carrier DMSO, −FCS); 19.7 ng/mL in series [5] (Carrier Liposomal, +FCS (10%)); 4.7 ng/mL in series [5] (Carrier Liposomal, −FCS, 1 h drug, light 10 J/cm^2, MTT 24 h). The “Drug loading, P123” value in series [1] worked out at 0.37 mg/mL. For the same molecule, the “Drug loading, Liposome” value in series [1] is 0.06 mg/mL. Moreover, the “Reaction at the irradiated site” value in series [6] (1 mg/kg, formulated in P123, tumor bearing mice) is listed as “strong phototoxic reaction (edema)”. In addition, the “Percent (%) Mice Tumor Free” value amounted to 90% in series [6] (Liposomal, 1.0 mg/kg i.v., 690 nm 50J/cm2 15 min later, Day 7); 70% in series [6] (Liposomal, 1.0 mg/kg, Day 14); 60% in series [6] (Liposomal, 1.0 mg/kg, Day 20); 80% in series [6] (Pluronic P123, 0.5 mg/kg, Day 7); 60% in series [6] (Pluronic P123, 0.5 mg/kg, Day 14); 40% in series [6] (Pluronic P123, 0.5 mg/kg, Day 20). The “Percent (%) Mice Tumor Free” value in series [6] (Pluronic P123, 1.0 mg/kg, Day 7) is reported as “PT^1”; in series [6] (Pluronic P123, 1.0 mg/kg, Day 14), “PT^1”; in series [6] (Pluronic P123, 1.0 mg/kg, Day 20), “PT^1”. The “pH dependency of formulation stability” value in series [7] is on record as “does not display any pH-dependency”.
Turning to `Cc1ccc(-c2c3nc(c(-c4ccc(C)cc4)c4ccc([nH]4)c(-c4ccc(C)cc4)c4nc(c(-c5ccc(C)cc5)c5ccc2[nH]5)C(O)C4O)C=C3)cc1` (stereo not drawn) [JM4, 5, 10, 15, 20-tetra (para-methyl phenyl)-2,-3-dihydroxychlorin], the Incorporation in series [8] (P123 2.5% w/v) was found to be 0.92 mg/mL; in series [8] (P123 5% w/v) it was 1.43 mg/mL; in series [8] (P123 10% w/v), 2.00 mg/mL.
